Test results from patent US20050124607A1, “5-Substituted quinazolinone compounds useful as alpha 1A/B adrenergic receptor antagonists” (priority 2003, published 2005).

Key:
alpha1A adrenoceptor = target: T1, alpha1A adrenoceptor (Homo sapiens, UniProt P35348); test: [3H]prazosin binding (alpha1-adrenoceptor) assay, alpha 1A; conditions: transfected CHO-K1 cell membranes, read-out: pKi alpha 1A (converted)
T1 construct: expressed in transfected cells; host or cells: CHO-K1
T1 sequence (P35348 1-466): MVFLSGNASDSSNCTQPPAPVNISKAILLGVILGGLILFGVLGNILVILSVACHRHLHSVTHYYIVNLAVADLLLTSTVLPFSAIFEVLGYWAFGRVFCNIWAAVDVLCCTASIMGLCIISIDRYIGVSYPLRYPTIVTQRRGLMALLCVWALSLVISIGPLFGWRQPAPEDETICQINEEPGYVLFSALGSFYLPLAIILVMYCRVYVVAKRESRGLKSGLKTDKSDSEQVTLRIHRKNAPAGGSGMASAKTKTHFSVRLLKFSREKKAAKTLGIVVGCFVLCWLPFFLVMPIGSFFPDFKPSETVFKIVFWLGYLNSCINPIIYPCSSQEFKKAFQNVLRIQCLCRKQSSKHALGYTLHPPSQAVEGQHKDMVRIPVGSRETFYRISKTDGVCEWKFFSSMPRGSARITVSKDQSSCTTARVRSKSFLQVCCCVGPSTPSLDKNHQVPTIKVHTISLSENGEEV
Procedure: (§1) Alpha1 A, alpha1B, and alpha1D adrenoceptor transfected CHO-K1 cells, prepared using the methods described by Chang et al., FEBS Lett. 1998, 422:279-283, were grown to confluence in T-162 tissue culture flasks in Ham's F-12 culture medium supplemented with 10% fetal bovine serum, geneticin (150 μg/mL) and streptomycin/penicillin (30 μg/mL/30 μg/mL) at 37° C. in 7% CO2. Cells were harvested by incubating with phosphate-buffered saline (PBS) containing 30 μM EDTA for 5-10 min at 37° C. Cells were pelleted by centrifuging at 500×g for 5 min, and the pelleted cells were homogenized (Polytron homogenizer) in 10 vols (w/v) of 50 mM Tris, 1 mM EDTA, (homogenisation buffer, pH 7.4 at 4° C.). The homogenate was centrifuged at 45,000×g for 20 min. The pellet was resuspended in the homogenizing buffer and rehomogenized. The resulting homogenate was centrifuged at 45,000×g for 20 min. The pellet was resuspended in 50 mM Tris buffer (pH 7.4 at 4° C.), aliquoted, frozen, and stored at −80° C. for further use.
(§2) The membranes were thawed at rt and diluted in assay buffer (50 mM Tris buffer at […]) at 37° C. and homogenized using the Polytron tissue disrupter. The membranes were incubated with the radioligand ([^3H]prazosin, NEN, 0.1-0.5 nM) and test compound at 37° C. for 30 min. The membranes were then filtered over polyethyleneimine-treated GF/B unifilter plates using a Packard Filtermate Harvester and washed with ice-cold 50 mM Tris-HCl, 1 mM EDTA buffer (3×3 sec. washes). Scintillation cocktail was added to the filter plates and bound radioligand determined by liquid scintillation spectrophotometry.
(§3) For each experiment, total binding (in the absence of any test or reference compounds) and non-specific binding (10 μM phentolamine) were determined. For each sample tested, the concentration producing 50% inhibition of binding (IC50) and Hill Slope (nH) was determined using iterative non-linear curve fitting techniques with Kaleidagraph (Synergy Software) or other appropriate software. If the radioligand KD was known, the inhibition dissociation constant (KI) of each ligand was determined according to the method of Cheng and Prusoff (Cheng, Y-C. and Prusoff, W. H., Biochem.Pharmacol., 1973, 22, 3099-3108).

alpha1B adrenoceptor = target: T2, alpha1B adrenoceptor (Homo sapiens, UniProt P35368); test: [3H]prazosin binding (alpha1-adrenoceptor) assay, alpha 1B; conditions: transfected CHO-K1 cell membranes, read-out: pKi alpha 1B (converted)
T2 construct: expressed in transfected cells; host or cells: CHO-K1
T2 sequence (P35368 1-520): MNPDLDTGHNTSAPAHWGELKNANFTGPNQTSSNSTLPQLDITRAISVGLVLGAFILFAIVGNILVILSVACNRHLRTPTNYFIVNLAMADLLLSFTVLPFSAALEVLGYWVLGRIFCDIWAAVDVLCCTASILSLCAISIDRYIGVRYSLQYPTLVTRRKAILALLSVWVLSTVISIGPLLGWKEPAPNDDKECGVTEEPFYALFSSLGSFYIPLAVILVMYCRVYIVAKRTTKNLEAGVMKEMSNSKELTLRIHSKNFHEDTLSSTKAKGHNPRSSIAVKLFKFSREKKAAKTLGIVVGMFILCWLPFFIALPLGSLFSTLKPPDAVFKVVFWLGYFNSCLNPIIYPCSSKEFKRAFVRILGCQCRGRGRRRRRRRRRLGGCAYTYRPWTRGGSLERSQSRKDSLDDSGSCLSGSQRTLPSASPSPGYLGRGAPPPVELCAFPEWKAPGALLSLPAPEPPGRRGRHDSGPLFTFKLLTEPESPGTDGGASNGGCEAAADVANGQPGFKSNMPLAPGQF
Procedure: as §1, §2, §3

alpha1D adrenoceptor = target: T3, alpha1D adrenoceptor (Homo sapiens, UniProt P25100); test: [3H]prazosin binding (alpha1-adrenoceptor) assay, alpha 1D; conditions: transfected CHO-K1 cell membranes, read-out: pKi alpha 1D (converted)
T3 construct: expressed in transfected cells; host or cells: CHO-K1
T3 sequence (P25100 1-572): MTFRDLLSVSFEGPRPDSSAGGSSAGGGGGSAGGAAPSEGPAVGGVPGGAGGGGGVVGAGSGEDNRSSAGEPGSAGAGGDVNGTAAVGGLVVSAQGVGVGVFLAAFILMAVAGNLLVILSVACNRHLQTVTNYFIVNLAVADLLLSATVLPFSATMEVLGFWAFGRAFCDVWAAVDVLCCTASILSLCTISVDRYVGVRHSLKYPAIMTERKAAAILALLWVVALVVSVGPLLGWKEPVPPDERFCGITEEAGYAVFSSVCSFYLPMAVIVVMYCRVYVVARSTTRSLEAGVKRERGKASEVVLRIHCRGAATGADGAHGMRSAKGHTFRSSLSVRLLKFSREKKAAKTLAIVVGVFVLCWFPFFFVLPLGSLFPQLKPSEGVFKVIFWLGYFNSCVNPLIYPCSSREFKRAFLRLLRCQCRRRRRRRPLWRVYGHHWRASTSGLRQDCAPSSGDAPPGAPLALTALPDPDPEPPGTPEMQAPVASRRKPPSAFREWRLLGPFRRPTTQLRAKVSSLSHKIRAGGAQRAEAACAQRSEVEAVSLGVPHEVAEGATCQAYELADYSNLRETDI
Procedure: as §1, §2, §3

[1] = tested on: hypogastric nerve stimulation-induced increases in intraurethral pressure and phenylephrine-induced increases in diastolic blood pressure; test: In vivo intraurethral and blood pressure assay in anesthetized dog; conditions: anesthetized male mongrel dog, i.v. bolus, increasing doses
Procedure: The following describes an in vivo assay for measuring the relative effect of test compounds on hypogastric nerve stimulation-induced increases in intraurethral pressure and phenylephrine-induced increases in diastolic blood pressure in anesthetized dog.
Male Mongrel dogs (10 to 20 kg) were-fasted for 12 to 18 hours and anesthetized with phenobarbital sodium (36 mg/kg, i.v.). An endotracheal tube was inserted and thereafter the lungs were mechanically ventilated with room air. The right femoral vein was isolated and cannulated with two polyethylene cannulae, one for the administration of a continuous infusion of phenobarbital sodium (5 to 10 mg/kg/hr) and the other for bolus administration of test substances. The right femoral artery was isolated and cannulated to the abdominal aorta with a fluid filled polyethylene cannula connected to an external pressure transducer for monitoring diastolic aortic pressure (DAP). The bladder was exposed via a ventral midline abdominal incision and emptied of urine through a 22 gauge needle. The bladder was cannulated through a stab incision with a water filled balloon catheter connected to an external pressure transducer for monitoring prostatic intraurethral pressure (IUP). The right hypogastric nerve (HGN) was carefully isolated and attached to a Dastre's electrode for nerve stimulation. […]

SMILES | Ki (alpha1A adrenoceptor) | Ki (alpha1B adrenoceptor) | Ki (alpha1D adrenoceptor) | inhibition of HGN stimulation-induced increases in IUP and PE-induced increases in DAP [1]
COc1cc2[nH]c(N3CCC4(CC3)CN(c3ccc(F)cc3)C(=O)CO4)nc(=O)c2c(OC)c1OC | 6.17 nM | 13.8 nM | 257 nM | –
COc1cc2[nH]c(N3CCN(c4ncc[nH]4)CC3)nc(=O)c2c(OC)c1OC [2-[4-(1H-Imidazol-2-yl)-piperazin-1-yl]-5,6,7-tri-methoxy-1H-quinazolin-4-one] | 1.12 nM | 2.51 nM | 457 nM | –
COc1cc2nc(N3CCN(C(=O)c4ccco4)CC3)nc(N)c2cc1OC [prazosin] | – | – | – | inhibited increases in IUP and DAP in similar fashion

The next lines start with results.

Ki (alpha1A adrenoceptor) | Ki (alpha1B adrenoceptor) | Ki (alpha1D adrenoceptor) | SMILES | inhibition of HGN stimulation-induced increases in IUP and PE-induced increases in DAP [1]
5.25 nM | 2.19 nM | 87.1 nM | COc1cc2[nH]c(N3CCC(CCn4ccnc4)CC3)nc(=O)c2c(C)c1OC [2-[4-(2-Imidazol-1-yl-ethyl)-piperidin-1-yl]-6,7-di-methoxy-5-methyl-1H-quinazolin-4-one] | –
1.58 nM | 1.58 nM | 79.4 nM | CNCC(=O)N(C)Cc1cccc2c1CCN(c1nc(=O)c3c(C)c(OC)c(OC)cc3[nH]1)C2 [N-[2-(6,7-Dimethoxy-5-methyl-4-oxo-1,4-dihydro-quinazolin-2-yl)-1,2,3,4-tetrahydro-isoquinolin-5-ylmethyl]-N-methyl-2-methylamino-acetamide] | –
